We go through 18 compounds from US20220356174A1, “PYRIDIN-2-ONE COMPOUNDS USEFUL AS SMARCA2 ANTAGONISTS” (Epizyme, Inc., priority 2018, published 2022).

Where only a bound is given, the exact number is not on record here.

The first assay concerns A549 cells. Briefly: High-throughput proliferation (HTP) assay for A549 cells (CellTiter-Glo, 7 days). The assay is classed as cell-based. The settings on record: Homo sapiens, 168 h, read-out: A549 SMARCA2 IC50. As for the experimental part:
Thawing vials: A549 cells (ATCC #CCL-185™) were thawed from a cryovial containing approximately 1.6×10^6 cells frozen in 70% F12K medium, 20% HI-FBS and 10% DMSO. Cells were thawed by submerging the bottom half of the vial in a 37° C. water bath and gently flicked until almost thawed. The cells were transferred into a 15 mL conical tube containing 9 mL of F12K medium+10% HI-FBS and then centrifuged at 200×g for 4 min before drawing off the media without disturbing the cell pellet in order to remove the DMSO. The cells were resuspended again in 15 mL of F12K fresh complete media+10% HI-FBS and grown up in a T75 flask at 37° C. with 5% CO2 Incubator. Viability was measured to obtain baseline.
Frozen stock vials preparation: The cell culture was transferred to a 50 mL conical tube, spun down to remove medium, and resuspended at 1-2×10^6 cells/mL in complete medium containing 10% DMSO. The culture was then stored for 24 hours at −80 degree C., (with the initial rate of freezing is −1 degree C. per minute in a freezing container), then transferred and stored in liquid nitrogen.
Routine subculture: Sub-confluent cultures (70-80%) were split every 4 days, seeding out at 1-2×10^6 cells/75 cm^2.
Day 0: Assay ready plates were prepared by dispensing 50 nL of compound or DMSO in the appropriate wells of 384-well white CulturPlates using Echo550. Using the Multiflo, A549 cells were plated at 50 μL/well in F12K complete media+10% HI-FBS+1% pen/strep at cell density determined [1,250 cells/mL (62.5 cells/well)] from growth curve.
Treated cells were incubated at 37° C., 5% CO2, relative humidity >90% for 7 days. CellTiter-Glo (CTG) ATP detection reagent was prepared according to manufacturer's specifications. Cell assay plates were removed from the incubator and brought to room temperature (RT). Using the MultiDrop liquid handler, 30 μL of CTG were added per well. Plates were placed on the multidrop dispenser shake for 5 seconds at room temperature (RT). Plates were incubated for 30 minutes in the dark at RT before measuring luminescence using the Envison2104.
Data analysis: Using the DMSO control wells as the 0% inhibition (high signal) control and the 10 μM Doxorubicin control wells as the 100% inhibition (low signal) control, percent inhibition EC50s (inflection point) and IC50 s were calculated for the compound dose responses.
Turning to `CCn1cc(NC(=O)c2cc(Cl)c(C#N)[nH]2)cc(F)c1=O` [Compound 235], the IC50 was at least 20 µM.
Take `O=C(Nc1cc(F)c(=O)n(CCF)c1)c1cnc([N+](=O)[O-])s1` [Compound 275]: the IC50 was at least 20 µM.
Same read-out and setting: under `CC(CF)n1cc(NC(=O)c2cc(Cl)c(C(F)(F)F)s2)cc(F)c1=O` (centres unmarked) [Compound 340] stands above 10 µM; under `N#Cc1cc(C(=O)Nc2cc(Cl)c(=O)n(CCF)c2)[nH]c1Cl` [Compound 240], at least 20 µM; under `N#Cc1ncc(C(=O)Nc2cc(C#N)c(=O)n(CCF)c2)s1` [Compound 203], at least 20 µM.

For a further assay, the target named is T1, FL-SMARCA2 (full-length human SMARCA2 isoform 1) (Homo sapiens, UniProt P51531).
T1 construct: FLAG tag (YKDDDDK) (C); made in house; host or cells: Sf21 insect cells (baculovirus, pFastBacI)
T1 sequence (P51531 with tags, fused parts or gaps): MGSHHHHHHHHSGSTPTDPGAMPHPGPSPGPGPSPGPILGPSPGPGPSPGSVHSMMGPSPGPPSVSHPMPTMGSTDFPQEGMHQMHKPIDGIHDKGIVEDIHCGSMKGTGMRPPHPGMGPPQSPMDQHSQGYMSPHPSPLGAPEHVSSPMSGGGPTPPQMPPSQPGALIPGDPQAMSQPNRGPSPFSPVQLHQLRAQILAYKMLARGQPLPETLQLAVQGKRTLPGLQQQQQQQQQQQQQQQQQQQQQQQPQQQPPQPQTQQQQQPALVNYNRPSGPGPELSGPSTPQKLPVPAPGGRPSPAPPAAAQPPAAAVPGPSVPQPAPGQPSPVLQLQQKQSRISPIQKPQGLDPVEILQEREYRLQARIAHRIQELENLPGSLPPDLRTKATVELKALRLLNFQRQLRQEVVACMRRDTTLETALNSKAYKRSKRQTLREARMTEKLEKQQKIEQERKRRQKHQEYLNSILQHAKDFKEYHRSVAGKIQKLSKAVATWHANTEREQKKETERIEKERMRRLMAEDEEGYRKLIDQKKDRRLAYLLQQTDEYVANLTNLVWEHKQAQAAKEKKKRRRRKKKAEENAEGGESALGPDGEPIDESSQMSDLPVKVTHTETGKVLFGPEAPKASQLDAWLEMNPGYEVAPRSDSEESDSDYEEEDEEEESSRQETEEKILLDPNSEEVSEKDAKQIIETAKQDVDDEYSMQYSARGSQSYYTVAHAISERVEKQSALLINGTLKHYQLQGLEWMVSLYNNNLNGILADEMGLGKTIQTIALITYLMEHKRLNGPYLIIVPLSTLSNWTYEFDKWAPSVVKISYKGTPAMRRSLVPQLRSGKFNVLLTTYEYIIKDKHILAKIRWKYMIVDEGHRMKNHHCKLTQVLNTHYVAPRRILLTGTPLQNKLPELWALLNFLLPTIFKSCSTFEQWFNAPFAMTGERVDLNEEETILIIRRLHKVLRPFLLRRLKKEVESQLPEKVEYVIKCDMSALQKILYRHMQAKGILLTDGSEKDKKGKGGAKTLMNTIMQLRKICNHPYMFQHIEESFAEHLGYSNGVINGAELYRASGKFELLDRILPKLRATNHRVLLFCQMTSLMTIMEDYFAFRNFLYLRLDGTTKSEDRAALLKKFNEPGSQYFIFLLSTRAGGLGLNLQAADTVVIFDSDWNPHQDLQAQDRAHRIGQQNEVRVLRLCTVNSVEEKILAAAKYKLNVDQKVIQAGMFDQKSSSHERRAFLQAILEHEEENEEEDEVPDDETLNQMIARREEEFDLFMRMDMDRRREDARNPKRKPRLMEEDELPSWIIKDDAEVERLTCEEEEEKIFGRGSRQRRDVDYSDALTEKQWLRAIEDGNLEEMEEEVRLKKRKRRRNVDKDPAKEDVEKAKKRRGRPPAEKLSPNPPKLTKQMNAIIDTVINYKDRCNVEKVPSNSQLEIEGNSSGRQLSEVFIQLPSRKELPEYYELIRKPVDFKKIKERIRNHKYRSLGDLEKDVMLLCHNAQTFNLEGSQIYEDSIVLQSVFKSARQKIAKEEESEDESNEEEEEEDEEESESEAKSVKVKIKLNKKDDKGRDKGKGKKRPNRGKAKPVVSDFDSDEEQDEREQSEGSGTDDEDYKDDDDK
Nature of the assay: SMARCA2 ATPase activity assay (ADP-Glo, chicken mononucleosome substrate). The assay is classed as biochemical. Conditions: Table 3a.1; SMARCA2 5 nM, ATP 250 uM, mononucleosome 10 nM. (In general: ADP-Glo turns the ADP formed in a reaction into a luminescent signal.)
In the case of `O=C(Nc1cc(F)c(=O)n(CCF)c1)c1ccc(Cl)cn1` [Compound 56a], the IC50 is above 50 µM.
Same read-out and setting: under `CN1CC(C(=O)Nc2cc(F)c(=O)n(CCF)c2)CC1=O` (centres unmarked) [Compound 51a] stands above 50 µM.
On the same count and under the same terms, under `CCn1cc(NC(=O)c2cccc(Cl)n2)ccc1=O` [Compound 25a] stands above 50 µM.

The same assay, now with this note: Table 3c.1; ATPase assay, enzyme 5 nM, ATP 250 uM, chicken mononucleosome 10 nM, 30 min preincubation.
In turn, `CN(C)CCCc1cc(NC(=O)c2cc(F)c(Cl)s2)cn(CC(F)F)c1=O` [Compound 7c] registered an IC50 above 50 µM.
Still for that read-out and setting: under `O=C(Nc1cc(-c2cnco2)c(=O)n(CC(F)F)c1)c1sc(C(F)(F)F)cc1Cl` [Compound 18c] stands above 50 µM.
On the same count and under the same terms, then `O=C(Nc1cc(-c2c[nH]cn2)c(=O)n(CC(F)F)c1)c1sc(C(F)(F)F)cc1Cl` [Compound 31c], with above 50 µM.

The same assay, now with this note: Table 3.1; ATPase assay, enzyme 5 nM, ATP 250 uM, chicken mononucleosome 10 nM, 30 min preincubation.
Regarding `CCn1cc(NC(=O)c2cc(Cl)c(C#N)[nH]2)cc(F)c1=O` [Compound 235], the IC50 was found to be 0.0591 µM.
On the same count and under the same terms, then `O=C(Nc1cc(F)c(=O)n(CCF)c1)c1cnc([N+](=O)[O-])s1` [Compound 275], with 0.381 µM; and `CC(CF)n1cc(NC(=O)c2cc(Cl)c(C(F)(F)F)s2)cc(F)c1=O` (centres unmarked) [Compound 340], with 0.695 µM; and `N#Cc1cc(C(=O)Nc2cc(Cl)c(=O)n(CCF)c2)[nH]c1Cl` [Compound 240], with 0.626 µM.
On the same count and under the same terms, under `N#Cc1ncc(C(=O)Nc2cc(C#N)c(=O)n(CCF)c2)s1` [Compound 203] stands 0.0407 µM; under `Cn1c(C(=O)Nc2cc(C#N)c(=O)n(CCF)c2)cc(Cl)c1C#N` [Compound 204], 1.26 µM.
On the same count and under the same terms, under `N#Cc1cc(C(=O)Nc2ccc(=O)n(CC(F)(F)F)c2)sc1Cl` [Compound 197] stands 0.281 µM.
In turn, `CCn1cc(NC(=O)c2cc(OC)c(O)s2)ccc1=O` [Compound 179] had an IC50 above 50 µM.
Same read-out and setting: then `CCn1cc(NC(=O)c2cc(Cl)c(Cl)n2-c2ccccc2)ccc1=O` [Compound 66], with above 50 µM.
Take `COc1ccc(Cn2c(C(=O)Nc3ccc(=O)n(CCF)c3)cc(Cl)c2C#N)cc1` [Compound 200]: the IC50 stood at 48.3 µM.
For `O=C(Nc1ccc(=O)n(CCO)c1)c1cc(Cl)c(Cl)s1` [Compound 83], the IC50 amounted to 20.8 µM.

Staying with this assay, now noted: Table 3d.1; ATPase assay, enzyme 5 nM, ATP 250 uM, chicken mononucleosome 10 nM, 30 min preincubation; read-out: FL-SMARCA2 IC>50.
With `O=C(Nc1cc(F)c(=O)n(CC(F)F)c1)c1cc(C(O)C(F)(F)F)c(Cl)s1` (centres unmarked) [Compound 47d], the IC50 stood at 25.1 µM.

The target of the next assay is FL-SMARCA4 (Homo sapiens, UniProt P51532). Briefly: SMARCA4 ATPase activity assay (ADP-Glo, chicken mononucleosome substrate). The settings on record: FL-SMARCA4 IC50.
Chain of FL-SMARCA4 (P51532 whole entry): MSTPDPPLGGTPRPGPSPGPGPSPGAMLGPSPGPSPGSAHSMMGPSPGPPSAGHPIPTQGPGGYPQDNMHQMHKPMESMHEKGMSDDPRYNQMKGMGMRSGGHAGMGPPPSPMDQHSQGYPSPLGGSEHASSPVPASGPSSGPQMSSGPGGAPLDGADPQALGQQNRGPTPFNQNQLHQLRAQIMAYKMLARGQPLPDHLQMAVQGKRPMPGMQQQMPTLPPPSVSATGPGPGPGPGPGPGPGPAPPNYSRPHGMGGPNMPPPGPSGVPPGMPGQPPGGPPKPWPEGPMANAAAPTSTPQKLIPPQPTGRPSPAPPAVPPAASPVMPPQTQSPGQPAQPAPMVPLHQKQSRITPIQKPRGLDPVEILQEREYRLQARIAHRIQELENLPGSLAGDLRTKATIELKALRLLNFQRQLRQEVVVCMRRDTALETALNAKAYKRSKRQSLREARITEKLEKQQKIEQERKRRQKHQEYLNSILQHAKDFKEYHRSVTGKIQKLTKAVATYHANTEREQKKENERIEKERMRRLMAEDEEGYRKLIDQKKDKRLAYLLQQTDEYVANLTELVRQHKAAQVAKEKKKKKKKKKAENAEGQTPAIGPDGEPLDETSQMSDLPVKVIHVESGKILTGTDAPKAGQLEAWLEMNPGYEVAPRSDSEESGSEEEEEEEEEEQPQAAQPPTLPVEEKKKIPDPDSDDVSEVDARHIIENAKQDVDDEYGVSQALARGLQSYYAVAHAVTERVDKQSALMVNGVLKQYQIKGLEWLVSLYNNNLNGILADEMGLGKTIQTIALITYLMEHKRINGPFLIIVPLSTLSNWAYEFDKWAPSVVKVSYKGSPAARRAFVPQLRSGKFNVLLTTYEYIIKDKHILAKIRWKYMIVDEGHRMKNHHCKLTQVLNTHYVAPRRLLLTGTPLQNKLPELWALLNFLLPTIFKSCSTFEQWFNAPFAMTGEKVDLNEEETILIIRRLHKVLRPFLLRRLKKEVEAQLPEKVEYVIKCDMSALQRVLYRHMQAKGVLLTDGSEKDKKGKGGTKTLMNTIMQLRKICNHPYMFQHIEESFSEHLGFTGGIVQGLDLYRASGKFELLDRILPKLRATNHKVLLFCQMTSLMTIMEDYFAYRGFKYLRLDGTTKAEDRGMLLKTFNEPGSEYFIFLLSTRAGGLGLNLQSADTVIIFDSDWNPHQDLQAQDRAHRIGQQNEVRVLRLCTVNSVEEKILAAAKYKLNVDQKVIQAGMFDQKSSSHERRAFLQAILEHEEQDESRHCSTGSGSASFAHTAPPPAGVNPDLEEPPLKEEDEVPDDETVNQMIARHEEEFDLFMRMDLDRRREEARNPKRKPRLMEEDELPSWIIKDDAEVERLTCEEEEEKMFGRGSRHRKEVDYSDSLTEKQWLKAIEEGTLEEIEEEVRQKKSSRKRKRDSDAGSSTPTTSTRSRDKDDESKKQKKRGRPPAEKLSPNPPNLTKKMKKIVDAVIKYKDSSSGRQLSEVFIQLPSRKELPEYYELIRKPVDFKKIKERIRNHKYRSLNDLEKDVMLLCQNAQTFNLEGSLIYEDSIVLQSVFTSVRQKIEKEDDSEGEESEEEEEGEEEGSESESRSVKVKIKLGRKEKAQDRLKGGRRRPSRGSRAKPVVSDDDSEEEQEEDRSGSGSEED
For `O=C(Nc1cc(F)c(=O)n(CC(F)F)c1)c1cc(C(O)C(F)(F)F)c(Cl)s1` (centres unmarked) [Compound 47d], the IC50 was above 50 µM.

The assay is the same for the next values; noted with them: FL-SMARCA4 IC50, Table 3a.2; SMARCA4 5 nM, ATP 250 uM, mononucleosome 10 nM.
For the compound `O=C(Nc1cc(F)c(=O)n(CCF)c1)c1ccc(Cl)cn1` [Compound 56a], the IC50 is above 50 µM.
`CN1CC(C(=O)Nc2cc(F)c(=O)n(CCF)c2)CC1=O` (centres unmarked) [Compound 51a] yielded an IC50 above 50 µM.
For `CCn1cc(NC(=O)c2cccc(Cl)n2)ccc1=O` [Compound 25a], the IC50 is above 50 µM.

Staying with this assay, now noted: FL-SMARCA4 IC50, Table 3.2; ATPase assay, enzyme 5 nM, ATP 250 uM, chicken mononucleosome 10 nM, 30 min preincubation.
The compound `CCn1cc(NC(=O)c2cc(Cl)c(C#N)[nH]2)cc(F)c1=O` [Compound 235] displayed an IC50 of 0.272 µM.
Same read-out and setting: then `O=C(Nc1cc(F)c(=O)n(CCF)c1)c1cnc([N+](=O)[O-])s1` [Compound 275], with 2.1 µM.
On the same count and under the same terms, then `CC(CF)n1cc(NC(=O)c2cc(Cl)c(C(F)(F)F)s2)cc(F)c1=O` (centres unmarked) [Compound 340], with 4.89 µM; and `N#Cc1cc(C(=O)Nc2cc(Cl)c(=O)n(CCF)c2)[nH]c1Cl` [Compound 240], with 2.39 µM.
The same measure, in the same setting: then `N#Cc1ncc(C(=O)Nc2cc(C#N)c(=O)n(CCF)c2)s1` [Compound 203], with 0.118 µM; and `Cn1c(C(=O)Nc2cc(C#N)c(=O)n(CCF)c2)cc(Cl)c1C#N` [Compound 204], with 5.78 µM; and `N#Cc1cc(C(=O)Nc2ccc(=O)n(CC(F)(F)F)c2)sc1Cl` [Compound 197], with 0.831 µM.
`CCn1cc(NC(=O)c2cc(OC)c(O)s2)ccc1=O` [Compound 179]: the IC50 was above 50 µM.
Same read-out and setting: then `CCn1cc(NC(=O)c2cc(Cl)c(Cl)n2-c2ccccc2)ccc1=O` [Compound 66], with above 50 µM; and `COc1ccc(Cn2c(C(=O)Nc3ccc(=O)n(CCF)c3)cc(Cl)c2C#N)cc1` [Compound 200], with 45.3 µM.
In turn, `O=C(Nc1ccc(=O)n(CCO)c1)c1cc(Cl)c(Cl)s1` [Compound 83] gave an IC50 above 50 µM.

Still in this assay, the particulars now being: FL-SMARCA4 IC>50, Table 3c.2; ATPase assay, enzyme 5 nM, ATP 250 uM, chicken mononucleosome 10 nM, 30 min preincubation.
Turning to `CN(C)CCCc1cc(NC(=O)c2cc(F)c(Cl)s2)cn(CC(F)F)c1=O` [Compound 7c], the IC50 was above 50 µM.
The same measure, in the same setting: then `O=C(Nc1cc(-c2cnco2)c(=O)n(CC(F)F)c1)c1sc(C(F)(F)F)cc1Cl` [Compound 18c], with above 50 µM.
On the same count and under the same terms, under `O=C(Nc1cc(-c2c[nH]cn2)c(=O)n(CC(F)F)c1)c1sc(C(F)(F)F)cc1Cl` [Compound 31c] stands above 50 µM.
